This is an account of results in patent publication US10633419B2, “Immunomodulators” (BRISTOL-MYERS SQUIBB COMPANY, priority 2014, dated 2020).

The target in the first assay is T1, PD-L1 (Homo sapiens, UniProt Q9NZQ7).
T1 construct: hPDL1(19-239)-TVMV-His; made in house; host or cells: HEK293T
T1 sequence (Q9NZQ7 with tags, fused parts or gaps): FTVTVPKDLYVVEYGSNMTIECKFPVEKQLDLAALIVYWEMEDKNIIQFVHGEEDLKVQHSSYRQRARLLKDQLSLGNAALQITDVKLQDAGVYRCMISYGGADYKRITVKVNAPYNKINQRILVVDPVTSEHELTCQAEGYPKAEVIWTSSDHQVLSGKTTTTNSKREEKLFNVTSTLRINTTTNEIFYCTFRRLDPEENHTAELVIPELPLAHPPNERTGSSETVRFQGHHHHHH
The assay can be described thus: PD-1/PD-L1 Homogenous Time-Resolved Fluorescence (HTRF) binding assay (PD-1-Ig/PD-L1-His). The following applies: inhibition of PD-1-Ig binding to PD-L1-TVMV-His; value given as number; read-out: HTRF IC50. Summed up: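 HTRF competition in dPBS with 0.1% BSA and 0.05% Tween-20: 20 nM PD-1-Ig added after 15 min compound pre-incubation with 10 nM PD-L1-His, then another 15 min. Signal (665/620 nm) after 30 min with APC anti-His (20 nM) and Eu anti-Ig (1 nM).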
`CCCCCCCCCCCCCCCC(=O)N[C@@H](CCn1cc(C[C@H](NC(=O)CNC(=O)[C@@H]2CSCC(=O)N[C@@H](Cc3ccc(O)cc3)C(=O)N(C)[C@@H](C)C(=O)N[C@@H](CC(=O)O)C(=O)N3CCC[C@H]3C(=O)N[C@@H](Cc3c[nH]cn3)C(=O)N[C@@H](CCCCN)C(=O)N3C[C@H](O)C[C@H]3C(=O)N[C@@H](Cc3c[nH]c4ccccc34)C(=O)N[C@@H](CCCCN)C(=O)N[C@@H](Cc3cn(CC(=O)O)c4ccccc34)C(=O)N(C)[C@@H](CCCC)C(=O)N(C)[C@@H](CCCC)C(=O)N[C@@H](CCC(=O)O)C(=O)N2)C(N)=O)nn1)C(=O)O` [Example 14072]: the IC50 came to 8.5 nM.
On the same count and under the same terms, in the case of `CCCC[C@H]1C(=O)N(C)[C@@H](CCCC)C(=O)N[C@@H](CC(C)C)C(=O)N[C@H](C(=O)NCC(=O)N[C@@H](Cc2cn(CC[C@H](NC(=O)CCCCCCCCCCCCCCCCC(=O)O)C(=O)O)nn2)C(=O)O)CSCC(=O)N[C@@H](Cc2ccc(O)cc2)C(=O)N(C)[C@@H](C)C(=O)N[C@@H](CC(N)=O)C(=O)N2CCC[C@H]2C(=O)N[C@@H](CN)C(=O)N[C@@H](CC(C)C)C(=O)N2C[C@H](O)C[C@H]2C(=O)N[C@@H](Cc2c[nH]c3ccccc23)C(=O)N[C@@H](CCN)C(=O)N[C@@H](Cc2cn(CC(=O)O)c3ccccc23)C(=O)N1C` [Example 14095] it was 14 nM.
Still for that read-out and setting: in the case of `CCCC[C@H]1C(=O)N(C)[C@@H](CCCC)C(=O)N[C@@H](CC(C)C)C(=O)N[C@H](C(=O)NCC(=O)N[C@@H](Cc2cn(CC[C@H](NC(=O)CCCCCCCCCCCCCCCCC(=O)O)C(=O)O)nn2)C(N)=O)CSCC(=O)N[C@@H](Cc2ccc(O)cc2)C(=O)N(C)[C@@H](C)C(=O)N[C@@H](CC(N)=O)C(=O)N2CCC[C@H]2C(=O)N[C@@H](CN)C(=O)N[C@@H](CC(C)C)C(=O)N2C[C@H](O)C[C@H]2C(=O)N[C@@H](Cc2c[nH]c3ccccc23)C(=O)N[C@@H](CCN)C(=O)N[C@@H](Cc2cn(CC(=O)O)c3ccccc23)C(=O)N1C` [Example 14096] it was 790 nM; in that of `CCCC[C@H]1C(=O)N(C)[C@@H](CCCC)C(=O)N[C@@H](CC(C)C)C(=O)N[C@H](C(=O)NCC(=O)N[C@@H](Cc2cn(CCOCCOCCOCCOCCOCCOCCOCCOCCOCCOCCOCCNC(=O)C[C@H](NC(=O)CCCCCCCCCCCCCCCCC(=O)O)C(=O)O)nn2)C(=O)O)CSCC(=O)N[C@@H](Cc2ccc(O)cc2)C(=O)N(C)[C@@H](C)C(=O)N[C@@H](CC(N)=O)C(=O)N2CCC[C@H]2C(=O)N[C@@H](CN)C(=O)N[C@@H](CC(C)C)C(=O)N2C[C@H](O)C[C@H]2C(=O)N[C@@H](Cc2c[nH]c3ccccc23)C(=O)N[C@@H](CCN)C(=O)N[C@@H](Cc2cn(CC(=O)O)c3ccccc23)C(=O)N1C` [Example 14103], 14 nM.

The same assay, now with this note: inhibition of PD-1-Ig binding to PD-L1-TVMV-His; value given as range class; read-out: HTRF IC50.
Regarding `CCCC[C@H]1C(=O)N(C)[C@@H](CCCC)C(=O)N[C@@H](CCC(=O)O)C(=O)N[C@H](C(=O)NCC(=O)N[C@@H](Cc2cn(CC[C@H](NC(=O)CCCCCCCCCCCCCCC(=O)O)C(=O)O)nn2)C(=O)NCC(N)=O)CSCC(=O)N[C@@H](Cc2ccc(O)cc2)C(=O)N(C)[C@@H](C)C(=O)N[C@@H](CC(=O)O)C(=O)N2CCC[C@H]2C(=O)N[C@@H](Cc2c[nH]cn2)C(=O)N[C@@H](CCC(N)=O)C(=O)N2C[C@H](O)C[C@H]2C(=O)N[C@@H](Cc2c[nH]c3ccccc23)C(=O)N[C@@H](CO)C(=O)N[C@@H](Cc2c[nH]c3ccccc23)C(=O)N1C` [Example 14069], the IC50 was in the range of 10 to 99 nM.
`CCCC[C@H]1C(=O)N(C)[C@@H](CCCC)C(=O)N[C@@H](CCC(=O)O)C(=O)N[C@H](C(=O)NCC(=O)N[C@@H](Cc2cn(CC[C@H](NC(=O)CCCCCCCCCCCCCCC(=O)O)C(=O)O)nn2)C(N)=O)CSCC(=O)N[C@@H](Cc2ccc(O)cc2)C(=O)N(C)[C@@H](C)C(=O)N[C@@H](CC(N)=O)C(=O)N2CCC[C@H]2C(=O)N[C@@H](CN)C(=O)N[C@@H](CC(C)C)C(=O)N2C[C@H](O)C[C@H]2C(=O)N[C@@H](Cc2c[nH]c3ccccc23)C(=O)N[C@@H](CO)C(=O)N[C@@H](Cc2cn(CC(=O)O)c3ccccc23)C(=O)N1C` [Example 14070]: the IC50 is 10 to 99 nM.
For `CCCC[C@H]1C(=O)N(C)[C@@H](CCCC)C(=O)N[C@@H](CCC(=O)O)C(=O)N[C@H](C(=O)NCC(=O)N[C@@H](Cc2cn(CC[C@H](NC(=O)CCCCCCCCCCCCCCC(=O)O)C(=O)O)nn2)C(=O)N[C@@H](CC(=O)O)C(N)=O)CSCC(=O)N[C@@H](Cc2ccc(O)cc2)C(=O)N(C)[C@@H](C)C(=O)N[C@@H](CC(=O)O)C(=O)N2CCC[C@H]2C(=O)N[C@@H](Cc2c[nH]cn2)C(=O)N[C@@H](CCCCN)C(=O)N2C[C@H](O)C[C@H]2C(=O)N[C@@H](Cc2c[nH]c3ccccc23)C(=O)N[C@@H](CCCCN)C(=O)N[C@@H](Cc2cn(CC(=O)O)c3ccccc23)C(=O)N1C` [Example 14071], the IC50 fell in the range of 10 to 99 nM.
On to `CCCC[C@H]1C(=O)N2CCC[C@@H]2C(=O)N[C@@H](CC(=O)O)C(=O)N[C@@H](C(C)C)C(=O)N(C)[C@@H](Cc2ccccc2)C(=O)N[C@@H](CCCN)C(=O)N2CCC[C@@H]2C(=O)N[C@@H](Cc2c[nH]c3ccccc23)C(=O)N[C@@H](Cc2ccc(O)cc2)C(=O)N[C@@H](CC(C)C)C(=O)N[C@H](C(=O)NCC(=O)N[C@@H](Cc2cn(CC[C@H](NC(=O)CCCCCCCCCCCCCCC(=O)O)C(=O)O)nn2)C(N)=O)CSCC(=O)N[C@@H](Cc2cc(F)c(F)c(F)c2)C(=O)N(C)[C@@H](Cc2ccccc2)C(=O)N1C` [Example 14073], for which the IC50 was 10 to 99 nM.
Still for that read-out and setting: in the case of `CCCC[C@H]1C(=O)N2C[C@H](O)C[C@@H]2C(=O)N[C@@H](CC(=O)O)C(=O)N[C@@H](C(C)C)C(=O)N(C)[C@@H](Cc2ccccc2)C(=O)N[C@@H](CC(=O)O)C(=O)N2CCC[C@@H]2C(=O)N[C@@H](Cc2c[nH]c3ccccc23)C(=O)N[C@@H](Cc2ccc(O)cc2)C(=O)N[C@@H](CC(C)C)C(=O)N[C@H](C(=O)NCC(=O)N[C@@H](Cc2cn(CC[C@H](NC(=O)CCCCCCCCCCCCCCC(=O)O)C(=O)O)nn2)C(N)=O)CSCC(=O)N[C@@H](Cc2cc(F)c(F)c(F)c2)C(=O)N(C)[C@@H](Cc2ccccc2)C(=O)N1C` [Example 14074] it was 10 to 99 nM; in that of `CCCC[C@H]1C(=O)N(C)[C@@H](CCCC)C(=O)N[C@@H](CCC(=O)O)C(=O)N[C@H](C(=O)NCC(=O)N[C@@H](Cc2cn(CC[C@H](NC(=O)CCCCCCCCCCCCCCC(=O)O)C(=O)O)nn2)C(N)=O)CSCC(=O)N[C@@H](Cc2ccc(O)cc2)C(=O)N(C)[C@@H](C)C(=O)N[C@@H](CC(=O)O)C(=O)N2CCC[C@H]2C(=O)N[C@@H](Cc2c[nH]cn2)C(=O)N[C@@H](CCCCN)C(=O)N2C[C@H](O)C[C@H]2C(=O)N[C@@H](Cc2c[nH]c3ccccc23)C(=O)N[C@@H](CCCCN)C(=O)N[C@@H](Cc2cn(CC(=O)O)c3ccccc23)C(=O)N1C` [Example 14075], 10 to 99 nM.
Regarding `CCCC[C@H]1C(=O)N(C)[C@@H](CCCC)C(=O)N[C@@H](CC(C)C)C(=O)N[C@H](C(=O)NCC(=O)N[C@@H](Cc2cn(CCOCCOCCOCCOCCOCCOCCOCCOCCOCCOCCOCCNC(=O)CC[C@H](NC(=O)CCCCCCCCCCCCCCCCC(=O)O)C(=O)O)nn2)C(=O)O)CSCC(=O)N[C@@H](Cc2ccc(O)cc2)C(=O)N2CCCC[C@H]2C(=O)N[C@@H](CC(N)=O)C(=O)N2CCC[C@H]2C(=O)N[C@@H](CN)C(=O)N[C@@H](CC(C)C)C(=O)N2C[C@H](O)C[C@H]2C(=O)N[C@@H](Cc2c[nH]c3ccccc23)C(=O)N[C@@H](CCN)C(=O)N[C@@H](Cc2cn(CC(=O)O)c3ccccc23)C(=O)N1C` [Example 14104], the IC50 is 100 to 1600 nM.
On the same count and under the same terms, next, `CCCC[C@H]1C(=O)N(C)[C@@H](CCCC)C(=O)N[C@@H](CC(C)C)C(=O)N[C@H](C(=O)NCC(=O)N[C@@H](Cc2cn(CCOCCOCCOCCOCCOCCOCCOCCOCCOCCOCCOCCNC(=O)CC[C@H](NC(=O)CCCCCCCCCCCCCCCCC(=O)O)C(=O)O)nn2)C(=O)O)CSCC(=O)N[C@@H](Cc2ccc(O)cc2)C(=O)N2CCCC[C@H]2C(=O)N[C@@H](CC(N)=O)C(=O)N2CCC[C@H]2C(=O)N[C@@H](CNC)C(=O)N[C@@H](CC(C)C)C(=O)N2C[C@H](O)C[C@H]2C(=O)N[C@@H](Cc2c[nH]c3ccccc23)C(=O)N[C@@H](CCN)C(=O)N[C@@H](Cc2cn(CC(=O)O)c3ccccc23)C(=O)N1C` [Example 14105]: 100 to 1600 nM; `CCCC[C@H]1C(=O)N(C)[C@@H](CCCC)C(=O)N[C@@H](CCC(=O)O)C(=O)N[C@H](C(=O)NCC(=O)N[C@@H](Cc2cn(CCOCCOCCOCCOCCOCCOCCOCCOCCOCCOCCOCCNC(=O)CC[C@H](NC(=O)CCCCCCCCCCCCCCCCC(=O)O)C(=O)O)nn2)C(=O)O)CSCC(=O)N[C@@H](Cc2ccc(O)cc2)C(=O)N2CCCC[C@H]2C(=O)N[C@@H](CC(N)=O)C(=O)N2CCC[C@H]2C(=O)N[C@@H](CN)C(=O)N[C@@H](CC(C)C)C(=O)N2C[C@H](O)C[C@H]2C(=O)N[C@@H](Cc2c[nH]c3ccccc23)C(=O)N[C@@H](CCN)C(=O)N[C@@H](Cc2cn(CC(=O)O)c3ccccc23)C(=O)N1C` [Example 14106]: 100 to 1600 nM; `CCCC[C@H]1C(=O)N(C)[C@@H](CCCC)C(=O)N[C@@H](CCC(=O)O)C(=O)N[C@H](C(=O)NCC(=O)N[C@@H](Cc2cn(CCOCCOCCOCCOCCOCCOCCOCCOCCOCCOCCOCCNC(=O)CC[C@H](NC(=O)CCCCCCCCCCCCCCCCC(=O)O)C(=O)O)nn2)C(=O)O)CSCC(=O)N[C@@H](Cc2ccc(O)cc2)C(=O)N2CCCC[C@H]2C(=O)N[C@@H](CC(N)=O)C(=O)N2CCC[C@H]2C(=O)N[C@@H](CNC)C(=O)N[C@@H](CC(C)C)C(=O)N2C[C@H](O)C[C@H]2C(=O)N[C@@H](Cc2c[nH]c3ccccc23)C(=O)N[C@@H](CCN)C(=O)N[C@@H](Cc2cn(CC(=O)O)c3ccccc23)C(=O)N1C` [Example 14107]: 100 to 1600 nM.
